According to ChEMBL document CHEMBL3301361, “Experimental in vitro DMPK and physicochemical data on a set of publicly disclosed compounds”:

Test: physchem
Details: octan-1-ol/water, pH 7.4

SMILES | logD
CCN(C)C(=O)c1ccc(C(=C2CCN(Cc3ccc(F)cc3)CC2)c2ccccc2NC(C)=O)cc1 | 2.79
NC(=O)c1cccc(O[C@@H]2C[C@H]3CC[C@@H](C2)N3Cc2ccccc2)c1 | 1.76
CCC[C@@H](CN1CCCC1)N(C)C(=O)Cc1ccc(Cl)c(Cl)c1 | 2.27
O=C1COc2ccc(CNC3CCN(CCN4C(=O)COc5ccc(O)cc54)CC3)nc2N1 | 0.52
CN(C(=O)Cc1ccc(Cl)c(Cl)c1)C(CN1CCCC1)c1ccccc1 (stereo not drawn) | 3.38
c1ccc2c(OCC3=NCCN3)cccc2c1 | 0.68
C=C1C[C@@H]2[C@H](CC[C@]3(C)C(=O)CC[C@@H]23)[C@@]2(C)C=CC(=O)C=C12 [EXEMESTANE] | 2.98
O=C1C=CC(=O)c2c(O)ccc(O)c21 [NAPHTHAZALIN] | 1.91
c1ccc(C2CCNCC2)cc1 | 0.54
NC(=O)c1cc(F)cc(O[C@H]2C[C@H]3CC[C@@H](C2)N3Cc2ccccc2)c1 | 2.14
CC(C)[C@@H]1N=C(c2ccccc2)c2ccccc2NC1=O | 3.05
CC(C)Oc1cccc(CC(=O)N2CCC[C@](CC[N+]34CCC(c5ccccc5)(CC3)CC4)(c3ccc(Cl)c(Cl)c3)C2)c1 [NOLPITANTIUM] | 1.23
NC(=O)c1cn([C@@H]2O[C@H](CO)[C@@H](O)[C@H]2O)c2ncnc(N)c12 [SANGIVAMYCIN] | -0.87
COc1ccccc1Cn1c(C)nc2ccccc21 | 3.47
CCC(CO)NCCNC(CC)CO (stereo not drawn) | -1.42

Same assay, conditions: octan-1-ol/water, pH 7.4, LogD7.4

SMILES | logD
Nc1ccc2c(c1)C(=O)c1ccccc1-2 | 2.9
Cc1ccc(NC(=O)c2cccc(C(F)(F)F)c2)cc1NC(=O)c1ccc2ncccc2c1 | 3.87
N#Cc1cc(O)cc2nc(-c3ccc(O)cc3)oc12 | 3.6
CC(C)c1nc(CN(C)C(=O)N[C@H](C(=O)N[C@@H](Cc2ccccc2)C[C@H](O)[C@H](Cc2ccccc2)NC(=O)OCc2cncs2)C(C)C)cs1 [RITONAVIR] | 4.3
COc1ccc2nc(N[C@H]3CCC[C@H](NCc4ccsc4)C3)cc(C)c2c1 | 2.41
O=C(NC[C@@H](O)CN1CCC(Oc2ccc(Cl)c(Cl)c2)CC1)c1c[nH]c(=O)c2c(F)cccc12 | 3.15
Nc1cccc(CCc2ccc3cc[nH]c3c2)n1 | 2.8
O=C1CCOc2nc(/C=C/c3ccccc3)ccc21 | 3.2
O=S(=O)(NCCNc1ncccn1)c1cccc2cnccc12 | 0.61
CC(C)(C)c1cc(O)n2nc(N)nc2n1 | -0.2
COc1cc(F)ccc1-c1cccc(CNC2CCCC2)n1 | 2.06
COc1ccc(-c2cc(C(F)(F)F)ccc2OCC(=O)O)cc1 | 0.29
CC(C)C(NC(=O)Cn1c(-c2ccccc2)ccc(NC(=O)NCc2ccncc2)c1=O)C(=O)C(F)(F)F (stereo not drawn) | 2.16
Cn1c(N)nc(CCc2cccc(-c3cccnc3)c2)cc1=O | 2.5
COc1cc2c(Nc3ccc(F)cc3F)c(C(N)=O)cnc2cc1N1CCN(C)CC1 | 1.75
Cc1ccc(-c2nccn2C)cc1NC(=O)c1ccc(OCc2ccccn2)cc1 | 2.83
O=S(=O)(NCC(c1ccccc1)N1CCCCCC1)c1cccc(C(F)(F)F)c1 (stereo not drawn) | 3.12
C[C@H]1O[C@@H](n2cnc3c(N)nc(OC(C4CC4)C(F)(F)F)nc32)[C@H](O)[C@@H]1O (stereo partly drawn) | 1.83
Cc1cccc(NC(=O)NCC(c2cccnc2)N2CCOCC2)c1 (stereo not drawn) | 2
CC(=O)Nc1ccc(CC(=O)N(C)C2CCN(CCC(c3ccccc3)c3ccccc3)CC2)cc1 | 2.9
O=C(CC1CCN(Cc2ccn(-c3ccc(C(F)(F)F)cc3)c2)CC1)NC(c1ccc(F)cc1)c1c[nH]c(=O)c(Cl)c1 (stereo not drawn) | 3.12
NC(N)=Nc1cc(Cl)nc(-c2ccccc2)n1 | 2.16
CN(Cc1ccc(Cl)cc1)C(=O)C1(N)CCN(c2ncnc3[nH]ccc23)CC1 | 2.8
CN(C)c1ncnc2nc[nH]c12 [DIMETHYLADENINE] | 0.95

SMILES | logD
O=C(O)c1[nH]c2cc(Cl)cc(Cl)c2c1/C=C1\CCN(c2ccccc2)C1=O | 1.85
COCCNCc1ccc(CCNC[C@H](O)c2ccc(O)c3[nH]c(=O)sc23)cc1 | -0.54
Cn1c(CN2CCN(c3ccc(Cl)cc3)CC2)nc2ccccc21 | 3.54
COc1ccc2nc(C)cc(-n3cc(CNC(C)=O)nn3)c2c1 | 1.6
Cc1ccc(C(=O)NC2CCN(c3cc(C(N)=O)cc(Cl)n3)CC2)[nH]1 | 2.64
C=CCNS(=O)(=O)c1ccc(NC(=O)[C@@](C)(O)C(F)(F)F)c(Cl)c1 | 3.07
Cc1ccc(-n2[nH]c(=O)c3cccnc32)cc1 | 2.1
CNC(=O)C1(N2CCCNC2=O)CCN(CC[C@H](CN(C)C(=O)c2c(OC)c(C#N)cc3ccccc23)c2ccc(Cl)c(Cl)c2)CC1 | 2.2
COc1ccc2c(C)cc(N[C@H]3CCC[C@H](NCc4ccsc4)C3)nc2c1 | 2.46
OCC[C@@]1(c2cc3ccccc3o2)CCCNC1 | 0.06
COc1cccc(NC(=O)c2cccc(Cc3c(C)nn(CCO)c3-c3ccccc3)c2)c1 | 4.29
c1ccc(CN(Cc2ccccc2)c2nn[nH]n2)cc1 | 1.37
NS(=O)(=O)c1cc2c(cc1C(F)(F)F)NC(Cc1ccccc1)NS2(=O)=O (stereo not drawn) [BENDROFLUMETHIAZIDE] | 1.78
Oc1ccc(-c2ccc3cc(O)ccc3c2)cc1 | 4
NC(=O)Cc1nc(-c2ccccc2)cs1 | 1.3
CCNc1nc(N)c(C(=O)c2ccc(Cl)s2)s1 | 3.63
CC(C)c1nnc2ccc(-c3ocnc3-c3cc(F)ccc3F)cn12 | 2.44
CCCc1c(OCc2cccc(NC(=O)Cc3ccccc3C(=O)O)c2)ccc(C(C)=O)c1O | 2.95
COc1ccc(Cn2c(=O)[nH]c3c(=O)n(CC(=O)NC(C(=O)C(F)(F)F)C(C)C)c(-c4ccccc4)cc3c2=O)cc1 (stereo not drawn) | 2.93
N=C(N)NCCC[C@H](NC(=O)COCC(c1ccccc1)c1ccccc1)C(=O)O | 0.18
CN(C)C(=O)N[C@H]1CC[C@H](CCN2CCN(c3ccc(Cl)c(Cl)c3)CC2)CC1 | 3.15
Fc1ccc2cn[nH]c2c1 | 2.3
CN(C)CCOC(C)(c1ccccc1)c1ccccn1 (stereo not drawn) [DOXYLAMINE] | -0.2
COc1ccccc1-c1coc2cc(O)ccc2c1=O | 2.55

SMILES | logD
COCCOc1ccc(Nc2ncc3cc(-c4ccncc4)ccc3n2)cc1 | 3.1
O=C(Nc1nc2ccccc2n1CCN1CCOCC1)c1cccc([N+](=O)[O-])c1 | 3.3
NC(=O)c1ccccc1O [SALICYLAMIDE] | 1.09
COc1cc2ncc(C(N)=O)c(Nc3ccc(C)cc3F)c2cc1OC | 3.34
O=c1cc(-c2ccc(O)cc2)oc2ccc(O)cc12 | 3.3
COc1cc(OC2CCN(C)CC2)c2c(Nc3c(Cl)ccc4c3OCO4)ncnc2c1 | 2.98
CC(C)C(NC(=O)Cn1c(-c2ccccc2)ccc(NC=O)c1=O)C(=O)C(F)(F)F (stereo not drawn) | 1.84
CC(=O)N1CCN(CC(O)COc2ccc(Br)cc2)CC1 (stereo not drawn) | 1.6
N[C@H](CNC(=O)c1cc2c(-c3ccccc3Cc3ccccc3)cccc2[nH]1)C(=O)O | 3.25
O=C(OCCN1CCCCC1)c1c[nH]c2ccccc12 | 2
CN(C)CC(O)COc1ccc(Nc2cc(Nc3ccc(F)cc3F)ncn2)cc1 (stereo not drawn) | 1.48
CCCCC(CC)COC(=O)CC(C(=O)OCC(CC)CCCC)S(=O)(=O)O (stereo not drawn) [DOCUSATE] | 2.93
O=C(COc1ccc(OCCNCC(O)COc2ccccc2)cc1)NCCO (stereo not drawn) | 0.42
CCCc1c(OCc2cccc(NC(=O)c3ccccc3C(=O)O)c2)ccc(C(C)=O)c1O | 1.9
O=C(NCCCNc1nc(Nc2cccc(NC(=O)N3CCCC3)c2)ncc1Br)c1cccs1 | 4.13
NC(=O)c1sc(-c2ccsc2)cc1N | 2.23
O=C(O)c1ccc(Nc2ncc(Br)c(Nc3ccccc3)n2)cc1 | 1.65
O=c1ccoc2cc(OCc3ccccc3)ccc12 | 3.33
COCCN(C)Cc1ccc(Nc2ncc3cc(-c4ccncc4)ccc3n2)cc1 | 2.65
N=C(N)Nc1ccc(C(=O)Oc2ccc([N+](=O)[O-])cc2)cc1 | 0.5
CN(C)c1nc(N(C)C)nc(N(C)C)n1 [ALTRETAMINE] | 2.44
O=c1c(-c2ccc(O)cc2)coc2cc(O)cc(O)c12 [GENISTEIN] | 3.06
O=C(NCC12CC3CC(CC(C3)C1)C2)c1cc(C2CCNCC2)ccc1Cl | 1.58
O=C1C2=Nc3ccccc3CN2c2ccccc21 | 2.71

SMILES | logD
CCCSc1ncccc1C(=O)N(C)C1CCOCC1 | 1.63
Cc1ccc2[nH]c(C(=O)N3CCN(C)CC3)cc2c1 | 2.22
CCC(c1nc2ccsc2c(=O)n1Cc1ccccc1)N(CC1CCNCC1)C(=O)c1ccc(C)cc1 (stereo not drawn) | 1.33
C=CCn1c(=O)c2c(-c3nc(C#N)cn3C)n(Cc3ccnc4ccc(Cl)cc34)nc2n(CC2CC2)c1=O | 3.92
CCCc1c(OCCCOc2ccc3c(=O)cc(C(=O)O)oc3c2CCC)ccc(C(C)=O)c1O | 3
Nc1ccnc(-c2cccnc2)n1 | 0.44
O=C(c1ccc(OCCCc2cnc[nH]2)cc1)C1CC1 [CIPROXIFAN] | 2.68
OCC[C@@]1(c2ccc(Cl)c(Cl)c2)CCCNC1 | 0.62
CC(C)Cn1c(=O)n(C)c(=O)c2c(C(=O)N3CC=CC3)c(Cc3ccccc3C(F)(F)F)sc21 | 3.53
O=C(C1CCCCC1)N1CC(=O)N2CCc3ccccc3C2C1 (stereo not drawn) [PRAZIQUANTEL] | 2.43
C[C@H]1O[C@@H](n2cnc3c(N)nc(OCC4CC(F)(F)C4(F)F)nc32)[C@H](O)[C@@H]1O (stereo partly drawn) | 1.42
CCCSc1nc(N2CCCC(C(=O)O)C2)ccc1C(=O)NC1CCCCC1 (stereo not drawn) | 1.72
CC(NC(=O)C1(N)CCN(c2ncnc3[nH]ccc23)CC1)c1ccc(F)cc1 (stereo not drawn) | 2.4
CC[C@H](NC(=O)c1c([S+](C)[O-])c(-c2ccccc2)nc2ccccc12)c1cccnc1 (stereo partly drawn) | 2.2
O=C(NCC12CC3CC(CC(C3)C1)C2)c1ccccc1 | 4.21
COc1ccc2c(C)cc(=O)n(CCN3CCC(NCc4cc5c(cn4)OCCO5)CC3)c2c1 | 1.72
CC(C)N1CCN(C(=O)NCc2ccc(Cl)c(Cl)c2)CC1 | 2.75
CCn1c(=O)c2c(-c3cncn3C)n(Cc3ccnc4ccc(Cl)cc34)nc2n(CC2CC2)c1=O | 2.87
O=C(COCc1ccncc1)N1CCC(c2ccc(F)cc2Cl)CC1 | 2.7
c1ccc(CC2NCCc3ccccc32)cc1 (stereo not drawn) | 1.89
CC(C)C(NC(=O)Cn1c(-c2ccccc2)ccc(NS(=O)(=O)c2ccccc2)c1=O)C(=O)C(F)(F)F (stereo not drawn) | 2.26
